Measured values: patent US10844077B2, “Thiazolyl-containing compounds for treating proliferative diseases” (Dana-Farber Cancer Institute, Inc., priority 2014, dated 2020)
Where two headings read alike, the source gives them in different places.

Assays:
Type in all cases: binding
broad panel of kinases [1] = biological target: broad panel of kinases (Homo sapiens, UniProt Q9H0K1); conditions: SIK2; 1 μM
broad panel of kinases [2] = biological target: broad panel of kinases (Homo sapiens, UniProt Q9Y2H1); conditions: NDR2; 1 μM
broad panel of kinases [3] = biological target: broad panel of kinases (Homo sapiens, UniProt P45983); conditions: JNK1; 1 μM
broad panel of kinases [4] = biological target: broad panel of kinases (Homo sapiens, UniProt Q7KZI7); conditions: MARK2; 1 μM
broad panel of kinases [5] = biological target: broad panel of kinases (Homo sapiens, UniProt Q8N568); conditions: DCAMKL2; 1 μM
broad panel of kinases [6] = biological target: broad panel of kinases (Homo sapiens, UniProt Q13705); conditions: ACVR2B; 1 μM
Chain of broad panel of kinases (Homo sapiens, UniProt Q13705) (Q13705 19-512 limits assumed): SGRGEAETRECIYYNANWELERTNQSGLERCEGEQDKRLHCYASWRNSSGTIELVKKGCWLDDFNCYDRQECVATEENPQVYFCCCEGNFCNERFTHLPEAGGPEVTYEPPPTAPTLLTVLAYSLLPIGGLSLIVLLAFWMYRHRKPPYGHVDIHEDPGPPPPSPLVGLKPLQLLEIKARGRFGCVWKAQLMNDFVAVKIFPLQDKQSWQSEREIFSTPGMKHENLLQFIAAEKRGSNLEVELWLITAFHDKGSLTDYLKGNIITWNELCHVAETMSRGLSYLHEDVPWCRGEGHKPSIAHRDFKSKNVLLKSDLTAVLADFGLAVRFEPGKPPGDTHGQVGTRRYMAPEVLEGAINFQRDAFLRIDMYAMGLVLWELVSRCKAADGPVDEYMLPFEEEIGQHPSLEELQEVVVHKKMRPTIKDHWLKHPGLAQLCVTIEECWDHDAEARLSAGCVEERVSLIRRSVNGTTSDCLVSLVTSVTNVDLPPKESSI

broad panel of kinases [7] = biological target: broad panel of kinases (Homo sapiens, UniProt P42681); conditions: TXK; 1 μM
broad panel of kinases [8] = biological target: broad panel of kinases (Homo sapiens, UniProt Q9P286); conditions: PAK7; 1 μM
broad panel of kinases [9] = biological target: broad panel of kinases (Homo sapiens, UniProt Q15831); conditions: LKB1; 1 μM
broad panel of kinases [10] = biological target: broad panel of kinases (Homo sapiens, UniProt Q9UM73, C1156Y); conditions: ALK(C1156Y); 1 μM
broad panel of kinases [11] = biological target: broad panel of kinases (Homo sapiens, UniProt Q99558); conditions: NIK; 1 μM
broad panel of kinases [12] = biological target: broad panel of kinases (Homo sapiens, UniProt Q12852); conditions: DLK; 1 μM
broad panel of kinases [13] = biological target: broad panel of kinases (Homo sapiens, UniProt P53667); conditions: LIMK1; 1 μM
broad panel of kinases [14] = biological target: broad panel of kinases (Homo sapiens, UniProt P10721); conditions: 1 μM
Chain of broad panel of kinases (Homo sapiens, UniProt P10721) (P10721 26-976 limits assumed): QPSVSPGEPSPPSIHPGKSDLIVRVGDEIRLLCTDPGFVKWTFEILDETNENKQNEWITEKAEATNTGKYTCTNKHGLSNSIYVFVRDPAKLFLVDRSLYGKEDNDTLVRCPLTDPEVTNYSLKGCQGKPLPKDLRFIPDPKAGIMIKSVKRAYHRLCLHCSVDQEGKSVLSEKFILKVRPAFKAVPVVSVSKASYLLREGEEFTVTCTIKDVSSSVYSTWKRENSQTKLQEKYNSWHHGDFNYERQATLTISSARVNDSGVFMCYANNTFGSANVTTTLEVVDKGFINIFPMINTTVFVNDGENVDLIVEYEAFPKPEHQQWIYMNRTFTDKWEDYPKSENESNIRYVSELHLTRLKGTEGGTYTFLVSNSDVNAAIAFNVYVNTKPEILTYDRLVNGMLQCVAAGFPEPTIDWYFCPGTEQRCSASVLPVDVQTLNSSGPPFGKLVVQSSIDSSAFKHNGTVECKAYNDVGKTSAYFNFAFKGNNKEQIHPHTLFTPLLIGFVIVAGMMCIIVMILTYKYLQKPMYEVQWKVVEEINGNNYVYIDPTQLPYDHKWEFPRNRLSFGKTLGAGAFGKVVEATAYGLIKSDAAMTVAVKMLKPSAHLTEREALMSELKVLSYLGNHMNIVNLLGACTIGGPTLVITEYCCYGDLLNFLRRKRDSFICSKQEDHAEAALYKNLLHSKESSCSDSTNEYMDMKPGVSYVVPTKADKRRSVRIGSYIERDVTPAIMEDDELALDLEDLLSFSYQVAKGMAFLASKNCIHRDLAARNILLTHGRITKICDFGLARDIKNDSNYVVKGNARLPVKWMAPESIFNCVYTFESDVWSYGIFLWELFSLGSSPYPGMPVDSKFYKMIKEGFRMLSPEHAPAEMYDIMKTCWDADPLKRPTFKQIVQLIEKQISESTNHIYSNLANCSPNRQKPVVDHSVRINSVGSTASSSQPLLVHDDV

broad panel of kinases [15] = biological target: broad panel of kinases (Homo sapiens, UniProt Q9UKE5); conditions: TNIK; 1 μM
broad panel of kinases [16] = biological target: broad panel of kinases (Homo sapiens, UniProt O00238); conditions: BMPR1B; 1 μM
Chain of broad panel of kinases (Homo sapiens, UniProt O00238) (O00238 14-502 limits assumed): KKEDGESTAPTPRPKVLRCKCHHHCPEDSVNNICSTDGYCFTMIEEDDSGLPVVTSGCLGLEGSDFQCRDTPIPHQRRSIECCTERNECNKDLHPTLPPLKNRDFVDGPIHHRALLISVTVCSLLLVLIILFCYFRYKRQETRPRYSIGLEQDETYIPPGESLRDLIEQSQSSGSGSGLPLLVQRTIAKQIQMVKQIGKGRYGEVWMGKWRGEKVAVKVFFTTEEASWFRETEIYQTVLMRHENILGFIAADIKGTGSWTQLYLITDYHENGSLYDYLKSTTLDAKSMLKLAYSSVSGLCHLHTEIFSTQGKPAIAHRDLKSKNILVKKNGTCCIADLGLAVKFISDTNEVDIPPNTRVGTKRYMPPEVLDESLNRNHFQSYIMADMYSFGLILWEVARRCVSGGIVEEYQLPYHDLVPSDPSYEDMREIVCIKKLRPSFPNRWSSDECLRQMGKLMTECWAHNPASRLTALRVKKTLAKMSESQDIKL

broad panel of kinases [17] = biological target: broad panel of kinases (Homo sapiens, UniProt Q9NRH2); conditions: SNRK; 1 μM
broad panel of kinases [18] = biological target: broad panel of kinases (Homo sapiens, UniProt Q8TDC3); conditions: BRSK1; 1 μM
broad panel of kinases [19] = biological target: broad panel of kinases (Homo sapiens, UniProt O15111); conditions: IKK-alpha; 1 μM
broad panel of kinases [20] = biological target: broad panel of kinases (Homo sapiens, UniProt P00533, T790M); conditions: EGFR(T790M); 1 μM
Chain of broad panel of kinases (Homo sapiens, UniProt P00533, T790M) (P00533 25-1210 T790M limits assumed): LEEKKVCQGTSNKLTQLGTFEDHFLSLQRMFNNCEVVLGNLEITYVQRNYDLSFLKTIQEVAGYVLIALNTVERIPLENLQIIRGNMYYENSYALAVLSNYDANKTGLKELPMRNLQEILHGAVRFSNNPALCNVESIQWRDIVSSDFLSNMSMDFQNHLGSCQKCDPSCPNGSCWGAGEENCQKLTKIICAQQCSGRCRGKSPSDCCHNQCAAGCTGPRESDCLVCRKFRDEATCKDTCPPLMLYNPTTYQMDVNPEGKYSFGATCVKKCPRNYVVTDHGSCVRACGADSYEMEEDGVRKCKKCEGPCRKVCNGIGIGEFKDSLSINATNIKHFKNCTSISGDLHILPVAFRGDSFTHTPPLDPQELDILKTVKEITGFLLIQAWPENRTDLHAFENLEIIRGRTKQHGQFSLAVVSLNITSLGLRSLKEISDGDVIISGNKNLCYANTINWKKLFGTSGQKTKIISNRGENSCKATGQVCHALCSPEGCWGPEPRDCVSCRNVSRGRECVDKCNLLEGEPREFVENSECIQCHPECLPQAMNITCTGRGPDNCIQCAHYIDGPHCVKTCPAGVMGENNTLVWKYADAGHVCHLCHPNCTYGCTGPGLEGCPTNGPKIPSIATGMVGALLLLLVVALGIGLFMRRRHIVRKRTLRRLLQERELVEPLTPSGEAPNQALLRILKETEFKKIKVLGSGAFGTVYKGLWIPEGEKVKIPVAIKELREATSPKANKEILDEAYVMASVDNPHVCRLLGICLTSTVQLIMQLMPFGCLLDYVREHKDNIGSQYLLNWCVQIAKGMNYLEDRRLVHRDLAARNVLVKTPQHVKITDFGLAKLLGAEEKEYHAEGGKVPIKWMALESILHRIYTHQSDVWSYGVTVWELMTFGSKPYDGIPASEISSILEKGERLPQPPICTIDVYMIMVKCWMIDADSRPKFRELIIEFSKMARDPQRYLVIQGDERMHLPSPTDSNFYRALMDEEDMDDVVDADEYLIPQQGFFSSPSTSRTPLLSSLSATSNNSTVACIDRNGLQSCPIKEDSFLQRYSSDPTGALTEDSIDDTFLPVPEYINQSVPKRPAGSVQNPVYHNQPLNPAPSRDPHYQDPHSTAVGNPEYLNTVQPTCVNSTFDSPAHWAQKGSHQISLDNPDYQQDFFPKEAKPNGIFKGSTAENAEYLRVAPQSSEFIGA

broad panel of kinases [21] = biological target: broad panel of kinases (Homo sapiens, UniProt Q9UBF8); conditions: PIK4CB; 1 μM
broad panel of kinases [22] = biological target: broad panel of kinases (Homo sapiens, UniProt Q04912); conditions: MST1R; 1 μM
broad panel of kinases [23] = biological target: broad panel of kinases (Homo sapiens, UniProt Q9BZL6); conditions: PRKD2; 1 μM
broad panel of kinases [24] = biological target: broad panel of kinases (Homo sapiens, UniProt O15264); conditions: p38-delta; 1 μM
broad panel of kinases [25] = biological target: broad panel of kinases (Homo sapiens, UniProt O15197); conditions: EPHB6; 1 μM
broad panel of kinases [26] = biological target: broad panel of kinases (Homo sapiens, UniProt P04049); conditions: RAF1; 1 μM
broad panel of kinases [27] = biological target: broad panel of kinases (Homo sapiens, UniProt Q9UIK4); conditions: DAPK2; 1 μM
broad panel of kinases [28] = biological target: broad panel of kinases (Homo sapiens, UniProt P35916); conditions: FLT4; 1 μM
Chain of broad panel of kinases (Homo sapiens, UniProt P35916) (P35916 25-1363 limits assumed): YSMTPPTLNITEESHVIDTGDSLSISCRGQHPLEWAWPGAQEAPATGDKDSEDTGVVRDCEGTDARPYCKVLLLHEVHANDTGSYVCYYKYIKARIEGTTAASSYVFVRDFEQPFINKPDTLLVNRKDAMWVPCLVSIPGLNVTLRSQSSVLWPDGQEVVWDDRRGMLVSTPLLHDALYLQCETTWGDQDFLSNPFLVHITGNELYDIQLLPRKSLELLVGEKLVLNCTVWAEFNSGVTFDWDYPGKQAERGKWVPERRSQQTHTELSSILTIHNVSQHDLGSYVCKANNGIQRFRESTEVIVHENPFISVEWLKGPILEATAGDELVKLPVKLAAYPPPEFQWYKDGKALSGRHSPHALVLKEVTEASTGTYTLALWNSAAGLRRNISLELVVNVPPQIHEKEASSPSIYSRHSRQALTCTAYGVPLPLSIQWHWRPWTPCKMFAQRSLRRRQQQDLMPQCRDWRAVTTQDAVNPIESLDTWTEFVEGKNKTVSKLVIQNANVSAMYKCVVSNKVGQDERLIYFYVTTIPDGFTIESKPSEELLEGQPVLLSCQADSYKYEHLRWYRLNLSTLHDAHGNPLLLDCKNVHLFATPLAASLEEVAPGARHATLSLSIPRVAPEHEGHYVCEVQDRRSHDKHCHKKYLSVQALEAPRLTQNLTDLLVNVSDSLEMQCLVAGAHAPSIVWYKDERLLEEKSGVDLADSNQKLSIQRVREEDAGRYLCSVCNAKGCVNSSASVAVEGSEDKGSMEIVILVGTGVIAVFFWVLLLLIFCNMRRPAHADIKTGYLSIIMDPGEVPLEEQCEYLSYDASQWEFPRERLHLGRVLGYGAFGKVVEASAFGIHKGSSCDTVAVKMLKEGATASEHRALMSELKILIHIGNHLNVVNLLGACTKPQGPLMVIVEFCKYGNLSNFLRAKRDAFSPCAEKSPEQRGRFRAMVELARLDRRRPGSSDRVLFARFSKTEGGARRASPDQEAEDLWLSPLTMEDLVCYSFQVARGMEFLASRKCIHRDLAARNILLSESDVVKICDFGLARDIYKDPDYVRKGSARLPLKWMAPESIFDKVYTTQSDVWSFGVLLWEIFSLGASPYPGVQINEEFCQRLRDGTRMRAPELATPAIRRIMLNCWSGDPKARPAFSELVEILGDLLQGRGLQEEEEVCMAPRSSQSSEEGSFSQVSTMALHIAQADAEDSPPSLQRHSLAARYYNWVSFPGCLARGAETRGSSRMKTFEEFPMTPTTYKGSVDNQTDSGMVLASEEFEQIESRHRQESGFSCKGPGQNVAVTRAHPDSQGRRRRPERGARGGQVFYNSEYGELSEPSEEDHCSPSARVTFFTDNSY

broad panel of kinases [29] = biological target: broad panel of kinases (Homo sapiens, UniProt P32298); conditions: GRK4; 1 μM
broad panel of kinases [30] = biological target: broad panel of kinases (Homo sapiens, UniProt P68400); conditions: CSNK2A1; 1 μM
broad panel of kinases [31] = biological target: broad panel of kinases (Homo sapiens, UniProt P51817); conditions: PRKX; 1 μM
broad panel of kinases [32] = biological target: broad panel of kinases (Homo sapiens, UniProt P49840); conditions: GSK3A; 1 μM
Chain of broad panel of kinases (Homo sapiens, UniProt P49840) (P49840 2-483 limits assumed): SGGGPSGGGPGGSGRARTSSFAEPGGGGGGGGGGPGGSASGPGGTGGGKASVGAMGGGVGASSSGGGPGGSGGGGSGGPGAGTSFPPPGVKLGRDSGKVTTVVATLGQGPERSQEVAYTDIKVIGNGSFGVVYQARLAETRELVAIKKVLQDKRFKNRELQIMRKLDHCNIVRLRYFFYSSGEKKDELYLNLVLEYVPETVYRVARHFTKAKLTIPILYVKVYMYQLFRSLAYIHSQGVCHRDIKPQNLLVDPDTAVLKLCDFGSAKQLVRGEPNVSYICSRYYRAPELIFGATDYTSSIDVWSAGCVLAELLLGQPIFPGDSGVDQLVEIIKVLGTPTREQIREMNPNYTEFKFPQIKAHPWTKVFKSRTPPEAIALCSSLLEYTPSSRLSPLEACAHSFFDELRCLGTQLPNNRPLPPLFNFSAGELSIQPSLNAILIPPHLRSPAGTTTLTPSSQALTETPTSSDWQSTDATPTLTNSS

broad panel of kinases [33] = biological target: broad panel of kinases (Homo sapiens, UniProt Q07912); conditions: TNK2; 1 μM
broad panel of kinases [34] = biological target: broad panel of kinases (Homo sapiens, UniProt P42345); conditions: MTOR; 1 μM
broad panel of kinases [35] = biological target: broad panel of kinases (Homo sapiens, UniProt Q14004); conditions: CDC2L5; 1 μM
broad panel of kinases [36] = biological target: broad panel of kinases (Homo sapiens, UniProt Q8IWQ3); conditions: BRSK2; 1 μM
broad panel of kinases [37] = biological target: broad panel of kinases (Homo sapiens, UniProt O43283); conditions: LZK; 1 μM

C=CC(=O)N1CC[C@H](Nc2nc(CN3CCOCC3)cc(Nc3ncc(C(=O)Nc4c(C)cccc4C)s3)n2)C1 [Example I-2]
percent of control binding remaining (lower = stronger binding) (broad panel of kinases [1]): 92%
percent of control binding remaining (lower = stronger binding) (broad panel of kinases [2]): 96%
percent of control binding remaining (lower = stronger binding) (broad panel of kinases [3]): 94%
percent of control binding remaining (lower = stronger binding) (broad panel of kinases [4]): 100%
percent of control binding remaining (lower = stronger binding) (broad panel of kinases [5]): 98%
percent of control binding remaining (lower = stronger binding) (broad panel of kinases [6]): 78%
percent of control binding remaining (lower = stronger binding) (broad panel of kinases [7]): 0.6%
percent of control binding remaining (lower = stronger binding) (broad panel of kinases [8]): 96%
percent of control binding remaining (lower = stronger binding) (broad panel of kinases [9]): 100%
percent of control binding remaining (lower = stronger binding) (broad panel of kinases [10]): 94%
percent of control binding remaining (lower = stronger binding) (broad panel of kinases [11]): 91%
percent of control binding remaining (lower = stronger binding) (broad panel of kinases [12]): 98%
percent of control binding remaining (lower = stronger binding) (broad panel of kinases [13]): 52%
percent of control binding remaining (lower = stronger binding) (broad panel of kinases [14]; KIT-autoinhibited): 1.8%
percent of control binding remaining (lower = stronger binding) (broad panel of kinases [14]; KIT): 0%
percent of control binding remaining (lower = stronger binding) (broad panel of kinases [15]): 97%
percent of control binding remaining (lower = stronger binding) (broad panel of kinases [16]): 10%
percent of control binding remaining (lower = stronger binding) (broad panel of kinases [17]): 100%
percent of control binding remaining (lower = stronger binding) (broad panel of kinases [18]): 100%
percent of control binding remaining (lower = stronger binding) (broad panel of kinases [19]): 93%
percent of control binding remaining (lower = stronger binding) (broad panel of kinases [20]): 48%
percent of control binding remaining (lower = stronger binding) (broad panel of kinases [21]): 100%
percent of control binding remaining (lower = stronger binding) (broad panel of kinases [22]): 99%
percent of control binding remaining (lower = stronger binding) (broad panel of kinases [23]): 100%
percent of control binding remaining (lower = stronger binding) (broad panel of kinases [24]): 100%
percent of control binding remaining (lower = stronger binding) (broad panel of kinases [25]): 7.7%
percent of control binding remaining (lower = stronger binding) (broad panel of kinases [26]): 26%
percent of control binding remaining (lower = stronger binding) (broad panel of kinases [27]): 86%
percent of control binding remaining (lower = stronger binding) (broad panel of kinases [28]): 95%
percent of control binding remaining (lower = stronger binding) (broad panel of kinases [29]): 100%
percent of control binding remaining (lower = stronger binding) (broad panel of kinases [30]): 90%
percent of control binding remaining (lower = stronger binding) (broad panel of kinases [31]): 100%
percent of control binding remaining (lower = stronger binding) (broad panel of kinases [32]): 100%
percent of control binding remaining (lower = stronger binding) (broad panel of kinases [33]): 31%
percent of control binding remaining (lower = stronger binding) (broad panel of kinases [34]): 100%
percent of control binding remaining (lower = stronger binding) (broad panel of kinases [35]): 100%
percent of control binding remaining (lower = stronger binding) (broad panel of kinases [36]): 100%
percent of control binding remaining (lower = stronger binding) (broad panel of kinases [37]): 97%

C=CC(=O)N1CC[C@H](Nc2nccc(Nc3ncc(C(=O)Nc4c(C)cccc4C)s3)n2)C1 [Example I-3]
percent of control binding remaining (lower = stronger binding) (broad panel of kinases [1]): 98%
percent of control binding remaining (lower = stronger binding) (broad panel of kinases [2]): 58%
percent of control binding remaining (lower = stronger binding) (broad panel of kinases [3]): 81%
percent of control binding remaining (lower = stronger binding) (broad panel of kinases [4]): 80%
percent of control binding remaining (lower = stronger binding) (broad panel of kinases [5]): 93%
percent of control binding remaining (lower = stronger binding) (broad panel of kinases [6]): 95%
percent of control binding remaining (lower = stronger binding) (broad panel of kinases [7]): 0.7%
percent of control binding remaining (lower = stronger binding) (broad panel of kinases [8]): 97%
percent of control binding remaining (lower = stronger binding) (broad panel of kinases [9]): 100%
percent of control binding remaining (lower = stronger binding) (broad panel of kinases [10]): 84%
percent of control binding remaining (lower = stronger binding) (broad panel of kinases [11]): 84%
percent of control binding remaining (lower = stronger binding) (broad panel of kinases [12]): 100%
percent of control binding remaining (lower = stronger binding) (broad panel of kinases [13]): 25%
percent of control binding remaining (lower = stronger binding) (broad panel of kinases [14]; KIT-autoinhibited): 2.6%
percent of control binding remaining (lower = stronger binding) (broad panel of kinases [14]; KIT): 0%
percent of control binding remaining (lower = stronger binding) (broad panel of kinases [15]): 93%
percent of control binding remaining (lower = stronger binding) (broad panel of kinases [16]): 45%
percent of control binding remaining (lower = stronger binding) (broad panel of kinases [17]): 92%
percent of control binding remaining (lower = stronger binding) (broad panel of kinases [18]): 100%
percent of control binding remaining (lower = stronger binding) (broad panel of kinases [19]): 100%
percent of control binding remaining (lower = stronger binding) (broad panel of kinases [20]): 56%
percent of control binding remaining (lower = stronger binding) (broad panel of kinases [21]): 36%
percent of control binding remaining (lower = stronger binding) (broad panel of kinases [22]): 100%
percent of control binding remaining (lower = stronger binding) (broad panel of kinases [23]): 100%
percent of control binding remaining (lower = stronger binding) (broad panel of kinases [24]): 100%
percent of control binding remaining (lower = stronger binding) (broad panel of kinases [25]): 4.6%
percent of control binding remaining (lower = stronger binding) (broad panel of kinases [26]): 26%
percent of control binding remaining (lower = stronger binding) (broad panel of kinases [27]): 80%
percent of control binding remaining (lower = stronger binding) (broad panel of kinases [28]): 100%
percent of control binding remaining (lower = stronger binding) (broad panel of kinases [29]): 100%
percent of control binding remaining (lower = stronger binding) (broad panel of kinases [30]): 98%
percent of control binding remaining (lower = stronger binding) (broad panel of kinases [31]): 100%
percent of control binding remaining (lower = stronger binding) (broad panel of kinases [32]): 97%
percent of control binding remaining (lower = stronger binding) (broad panel of kinases [33]): 43%
percent of control binding remaining (lower = stronger binding) (broad panel of kinases [34]): 100%
percent of control binding remaining (lower = stronger binding) (broad panel of kinases [35]): 100%
percent of control binding remaining (lower = stronger binding) (broad panel of kinases [36]): 95%
percent of control binding remaining (lower = stronger binding) (broad panel of kinases [37]): 88%
